In PubChem BioAssay AID192 (DTP/NCI, 2004):
Where “and” joins values, the source holds several entries; their conditions need not be identical. Equal values may be shown once. Toxic doses and inconclusive results are not listed.

Test system: BDF1 mice, B16 melanoma ip, median survival T/C
Assay: NCI In Vivo Anticancer Drug Screen. Data for tumor model B16 Melanoma (intraperitoneal) in B6D2F1 (BDF1) mice
Details: endpoint: median survival time, higher = longer survival
Method in brief: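 Antitumor activity is assessed in mice bearing a transplanted tumor, with survival or tumor size compared against vehicle-dosed controls and expressed as T/C.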

[1] = dose: 150.0 mg/kg/injection, schedule: Q01DX009 (ip), vehicle: saline with Tween-80
[2] = dose: 12.5 mg/kg/injection, schedule: Q01DX009 (ip), vehicle: saline
[3] = dose: 25.0 mg/kg/injection, schedule: Q01DX009 (ip), vehicle: saline
[4] = dose: 6.25 mg/kg/injection, schedule: Q01DX009 (ip), vehicle: Klucel (hydroxypropylcellulose) (HPC)
[5] = dose: 12.5 mg/kg/injection, schedule: Q01DX009 (ip), vehicle: Klucel (hydroxypropylcellulose) (HPC)
[6] = dose: 25.0 mg/kg/injection, schedule: Q01DX009 (ip), vehicle: Klucel (hydroxypropylcellulose) (HPC)
[7] = dose: 50.0 mg/kg/injection, schedule: Q01DX009 (ip), vehicle: Klucel (hydroxypropylcellulose) (HPC)
[8] = dose: 50.0 mg/kg/injection, schedule: Q01DX009 (ip), vehicle: saline with Tween-80
[9] = dose: 100.0 mg/kg/injection, schedule: Q01DX009 (ip), vehicle: saline with Tween-80
[10] = dose: 200.0 mg/kg/injection, schedule: Q01DX009 (ip), vehicle: saline with Tween-80
[11] = dose: 100.0 mg/kg/injection, schedule: Q01DX009 (ip), vehicle: saline
[12] = dose: 200.0 mg/kg/injection, schedule: Q01DX009 (ip), vehicle: saline
[13] = dose: 400.0 mg/kg/injection, schedule: Q01DX009 (ip), vehicle: saline
[14] = dose: 100.0 mg/kg/injection, schedule: Q01DX009 (ip), vehicle: Klucel (hydroxypropylcellulose) (HPC)
[15] = dose: 200.0 mg/kg/injection, schedule: Q01DX009 (ip), vehicle: Klucel (hydroxypropylcellulose) (HPC)

In the case of Cc1ccc(NC(=O)c2ccccc2Cl)cc1Cl, the T/C (dose: 75.0 mg/kg/injection, schedule: Q01DX009 (ip), vehicle: Klucel (hydroxypropylcellulose) (HPC)) is reported as 103 % of control, the T/C (dose: 150.0 mg/kg/injection, schedule: Q01DX009 (ip), vehicle: Klucel (hydroxypropylcellulose) (HPC)) is reported as 103 % of control and the T/C (dose: 300.0 mg/kg/injection, schedule: Q01DX009 (ip), vehicle: Klucel (hydroxypropylcellulose) (HPC)) is reported as 100 % of control.
With CC(=O)Oc1ccc(/C=N/NC(N)=S)nc1 the T/C (dose: 9.4 mg/kg/injection, schedule: Q01DX009 (ip), vehicle: saline with Tween-80) was 96 % of control, the T/C (dose: 18.8 mg/kg/injection, schedule: Q01DX009 (ip), vehicle: saline with Tween-80) was 106 % of control and the T/C (dose: 37.5 mg/kg/injection, schedule: Q01DX009 (ip), vehicle: saline with Tween-80) was 108 % of control. The T/C (dose: 75.0 mg/kg/injection, schedule: Q01DX009 (ip), vehicle: saline with Tween-80) was 112 % of control and the T/C [1] was 108 % of control.
CCCC[S+](CCCC)CC(=O)c1ccc(-c2ccccc2)cc1 was tested, and the T/C (dose: 1.56 mg/kg/injection, schedule: Q01DX009 (ip), vehicle: saline) was 110 % of control, the T/C (dose: 3.13 mg/kg/injection, schedule: Q01DX009 (ip), vehicle: saline) was 96 % of control and the T/C (dose: 6.25 mg/kg/injection, schedule: Q01DX009 (ip), vehicle: saline) was 95 % of control. The T/C [2] was 94 % of control and the T/C [3] was 105 % of control.
For O=S(=O)(O)O, the T/C [4] was 111 % of control, the T/C [5] was 106 % of control and the T/C [6] was 99 % of control. The T/C [7] was 93 % of control.
With CN(Cc1cnc2nc(N)nc(N)c2n1)c1c(Cl)cc(C(=O)NC(CCC(=O)O)C(=O)O)cc1Br (stereo not drawn) the T/C (dose: 25.0 mg/kg/injection, schedule: Q01DX011 (ip), vehicle: saline) was 101 % of control and the T/C (dose: 50.0 mg/kg/injection, schedule: Q01DX011 (ip), vehicle: saline) was 105 % of control.
In the case of CC(=O)C(Cl)C(=O)c1c(C)[nH]n(-c2ccccc2)c1=O (stereo not drawn), the T/C [6] is reported as 108 % of control and the T/C [7] is reported as 98 % of control.
For ClCc1ccc(Oc2ccc(CCl)cc2)cc1, the T/C [4] was 101 % of control, the T/C [5] was 101 % of control and 115 % of control and the T/C [6] was 105 % of control. The T/C [7] was 115 % of control and 124 % of control.
In the case of CC(C)N=C(N)/N=C(\N)Nc1ccc2ccc3ccccc3c2c1, the T/C [4] is reported as 112 % of control, the T/C [5] is reported as 103 % of control and the T/C [6] is reported as 87 % of control.
For O=CNC(Cc1cnc[nH]1)C(=O)O (stereo not drawn), the T/C [8] was 102 % of control, the T/C [9] was 100 % of control and the T/C [10] was 103 % of control. For the same compound, the T/C (dose: 400.0 mg/kg/injection, schedule: Q01DX009 (ip), vehicle: saline with Tween-80) was 100 % of control.
OC(CI)C(O)C(O)C(O)CI (stereo not drawn) was tested, and the T/C [11] was 97 % of control, the T/C [12] was 94 % of control and the T/C [13] was 103 % of control.
In the case of O=CNC(Cc1ccccc1)C(=O)O (stereo not drawn), the T/C [8] is reported as 106 % of control, the T/C [9] is reported as 92 % of control and the T/C [10] is reported as 89 % of control.
Brc1nnnn1-c1ccccc1 was tested, and the T/C [14] was 90 % of control and the T/C [15] was 93 % of control.
With OCC(O)c1ccccn1 (stereo not drawn) the T/C [11] was 123 % of control and the T/C [13] was 123 % of control.
In the case of O=C1c2ccccc2C(=O)N1CC[P+](c1ccccc1)(c1ccccc1)c1ccccc1, the T/C (dose: 1.56 mg/kg/injection, schedule: Q01DX009 (ip), vehicle: water) is reported as 98 % of control, the T/C (dose: 3.13 mg/kg/injection, schedule: Q01DX009 (ip), vehicle: water) is reported as 100 % of control and the T/C (dose: 6.25 mg/kg/injection, schedule: Q01DX009 (ip), vehicle: water) is reported as 109 % of control. The T/C (dose: 12.5 mg/kg/injection, schedule: Q01DX009 (ip), vehicle: water) was 107 % of control.
With COc1cc2c(cc1OC)C(CNC(=O)/C=C/c1ccccc1)C2 (stereo not drawn) the T/C [14] was 122 % of control, the T/C [15] was 97 % of control and the T/C (dose: 400.0 mg/kg/injection, schedule: Q01DX009 (ip), vehicle: Klucel (hydroxypropylcellulose) (HPC)) was 94 % of control.
For NC(CC(=O)O)CC(=O)O, the T/C (dose: 25.0 mg/kg/injection, schedule: Q01DX009 (ip), vehicle: suspension in saline) was 91 % of control, the T/C (dose: 50.0 mg/kg/injection, schedule: Q01DX009 (ip), vehicle: suspension in saline) was 92 % of control and the T/C (dose: 100.0 mg/kg/injection, schedule: Q01DX009 (ip), vehicle: suspension in saline) was 103 % of control. The T/C (dose: 200.0 mg/kg/injection, schedule: Q01DX009 (ip), vehicle: suspension in saline) was 100 % of control and the T/C (dose: 400.0 mg/kg/injection, schedule: Q01DX009 (ip), vehicle: suspension in saline) was 90 % of control.
For CC[CH2][Pb]([CH2]CC)([CH2]CC)[O]C(=O)C(Cl)(Cl)Cl, the T/C (dose: 2.0 mg/kg/injection, schedule: Q01DX009 (ip), vehicle: Klucel (hydroxypropylcellulose) (HPC)) was 120 % of control and the T/C (dose: 4.0 mg/kg/injection, schedule: Q01DX009 (ip), vehicle: Klucel (hydroxypropylcellulose) (HPC)) was 112 % of control.
In the case of CC(C)NNC(=O)c1ccncc1, the T/C [2] is reported as 107 % of control, the T/C [3] is reported as 94 % of control and 101 % of control and the T/C (dose: 50.0 mg/kg/injection, schedule: Q01DX009 (ip), vehicle: saline) is reported as 95 % of control and 101 % of control. For the same compound, the T/C [11] was 110 % of control and the T/C [12] was 92 % of control and 104 % of control.
With O=[N+]([O-])c1cc(Cl)c(Cl)cc1NS(=O)(=O)c1ccccc1 the T/C [1] was 100 % of control and the T/C (dose: 300.0 mg/kg/injection, schedule: Q01DX009 (ip), vehicle: saline with Tween-80) was 90 % of control.
In the case of OC1CC2CCC(C1)N2CCCN1c2ccccc2Sc2ccc(Cl)cc21 (stereo not drawn), the T/C (dose: 25.0 mg/kg/injection, schedule: Q04DX003 (ip), vehicle: saline) is reported as 97 % of control, the T/C (dose: 50.0 mg/kg/injection, schedule: Q04DX003 (ip), vehicle: saline) is reported as 90 % of control and the T/C (dose: 100.0 mg/kg/injection, schedule: Q04DX003 (ip), vehicle: saline) is reported as 93 % of control. For the same compound, the T/C (dose: 200.0 mg/kg/injection, schedule: Q04DX003 (ip), vehicle: saline) was 88 % of control.
In the case of Brc1ccc(C[N+]23CN4CN(CN(C4)C2)C3)cc1, the T/C [14] is reported as 121 % of control and the T/C [15] is reported as 115 % of control.
CC(=O)c1cccc(NC2C(N)C(NC(=O)N(C)C)(C(C)O)C(C)(O)C2(O)COC(=O)c2c(C)cccc2O)c1 (stereo not drawn) was tested, and the T/C (dose: 0.3 mg/kg/injection, schedule: Q01DX009 (ip), vehicle: saline with Tween-80) was 115 % of control, the T/C (dose: 0.3 mg/kg/injection, schedule: Q01DX009 (ip), vehicle: saline) was 113 % of control and the T/C (dose: 0.5 mg/kg/injection, schedule: Q01DX009 (ip), vehicle: Klucel (hydroxypropylcellulose) (HPC)) was 116 % of control. The T/C (dose: 0.6 mg/kg/injection, schedule: Q01DX009 (ip), vehicle: saline) was 113 % of control, the T/C (dose: 1.0 mg/kg/injection, schedule: Q01DX009 (ip), vehicle: Klucel (hydroxypropylcellulose) (HPC)) was 113 % of control and the T/C (dose: 1.2 mg/kg/injection, schedule: Q01DX009 (ip), vehicle: saline) was 122 % of control.
With CC(Cc1ccc(O)c(O)c1)C(C)Cc1ccc(O)c(O)c1 (stereo not drawn) the T/C (dose: 750.0 mg/kg/injection, schedule: Q01DX009 (oral), vehicle: saline) was 100 % of control and the T/C (dose: 1500.0 mg/kg/injection, schedule: Q01DX009 (oral), vehicle: saline) was 97 % of control.
In the case of O=NNc1cnccn1, the T/C (dose: 25.0 mg/kg/injection, schedule: Q01DX009 (ip), vehicle: water) is reported as 164 % of control.
O=c1oc2c(CN3CCCCC3)c(O)ccc2c2c1CCCC2 was tested, and the T/C (dose: 64.0 mg/kg/injection, schedule: Q01DX009 (ip), vehicle: Klucel (hydroxypropylcellulose) (HPC)) was 112 % of control, the T/C (dose: 128.0 mg/kg/injection, schedule: Q01DX009 (ip), vehicle: Klucel (hydroxypropylcellulose) (HPC)) was 98 % of control and the T/C (dose: 256.0 mg/kg/injection, schedule: Q01DX009 (ip), vehicle: Klucel (hydroxypropylcellulose) (HPC)) was 106 % of control. The T/C (dose: 512.0 mg/kg/injection, schedule: Q01DX009 (ip), vehicle: Klucel (hydroxypropylcellulose) (HPC)) was 93 % of control.
CCC(Br)C(=O)Nc1c(C)cccc1Cl (stereo not drawn) was tested, and the T/C [6] was 106 % of control, the T/C [7] was 93 % of control and the T/C [14] was 93 % of control.
Cn1c(CC#N)c(C[N+](C)(C)C)c2ccccc21 was tested, and the T/C (dose: 1.25 mg/kg/injection, schedule: Q01DX009 (ip), vehicle: saline with Tween-80) was 104 % of control, the T/C (dose: 2.5 mg/kg/injection, schedule: Q01DX009 (ip), vehicle: saline with Tween-80) was 86 % of control and the T/C (dose: 5.0 mg/kg/injection, schedule: Q01DX009 (ip), vehicle: saline with Tween-80) was 100 % of control.
